Test results: PubChem BioAssay (NCI)
Where “and” joins values, the source holds several entries; their conditions need not be identical. Equal values may be shown once.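 Exposure lasted 48 hours, with cells grown in 96-well plates and compounds tested at five concentrations. GI50 is the concentration that inhibits growth by half. At the TGI there is no net growth.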

Assays:
Assay in all cases: growth of human tumour cells (NCI), 48 h
ACHN renal = system: ACHN renal
K-562 leukemia = system: K-562 leukemia
MOLT-4 leukemia = system: MOLT-4 leukemia
OVCAR-8 ovarian = system: OVCAR-8 ovarian
SN12C renal = system: SN12C renal
T-47D breast = system: T-47D breast

Compound	GI50 (ACHN renal)	TGI (ACHN renal) [µM]	GI50 (K-562 leukemia)	TGI (K-562 leukemia) [µM]	GI50 (MOLT-4 leukemia)	TGI (MOLT-4 leukemia) [µM]	GI50 (OVCAR-8 ovarian)	TGI (OVCAR-8 ovarian) [µM]	GI50 (SN12C renal)	TGI (SN12C renal) [µM]	GI50 (T-47D breast)	TGI (T-47D breast) [µM]
Cc1cc(O)cc(C)c1/C=C/c1cncc(C(=O)N(C)C)c1	> 25 µM	> 25	> 25 µM	> 25	> 25 µM	> 25	> 25 µM	> 25	> 25 µM	> 25	> 25 µM	> 25
CCCCc1cc(O)ccc1O	15.6 µM	28.9	10.3 µM	> 100	5.07 µM	> 100	28.2 µM	> 100	18.7 µM	> 100	15.9 µM	67.5
CCc1ccc(C2=C(O)C(=O)C(c3ccc(CC)cc3)=C(O)C2=O)cc1	2.01 µM	6.28	1.34 µM	3.61	1.81 µM	4.15	2.95 µM	10.2	2.28 µM	9.79	1.9 µM	6.65
Cn1cnc([N+](=O)[O-])c1Sc1ncnc2nc[nH]c12	38.1 µM and 41.7 µM	> 100	2.49 µM and 1.3 µM	> 100	8.77 µM and 6.68 µM	> 100	3.68 µM and > 26.6 µM	> 100	20.5 µM and 36.4 µM	> 100	2.75 µM and 4.51 µM	> 100
O=[N+]([O-])/C=C\c1ccc2c(c1)OCO2	4.21 µM	16.2	3.16 µM	> 100	17.6 µM	67.7	2.86 µM	10.4	11.4 µM	30.3	5.27 µM	26.2
CCN(CC)CC(C)Nc1ccc(C)c2sc3ccccc3c(=O)c12 (centres undefined)	3.88 µM	15.1	0.216 µM	3.15	1.68 µM	5.93	6.86 µM	25.3	6.77 µM	21	3.28 µM	19.4
COC1C(=O)CCC2(CO2)C1(O)C1(C)OC1CCC(C)C (centres undefined)	–	> 100	–	> 100	–	> 100	–	> 100	–	> 100	–	> 100
CCOC(=O)/C=C/c1ccc(C(=O)OCC)[nH]1	6.88 µM	> 100	0.649 µM	> 100	4.42 µM	> 100	5.82 µM	> 100	5.11 µM	> 100	6.32 µM	> 100
N#CC1C(N)=NNC1c1ccc(-c2ccc(-c3nc4ccccc4o3)cc2)o1 (centres undefined)	14.6 µM	51.7	64.6 µM	> 100	> 100 µM	> 100	15.3 µM	88	45 µM	> 100	68.5 µM	> 100
Cc1ccc(S(=O)(=O)NCCN2c3nc4ccccc4cc3Sc3cc4ccccc4nc32)cc1	8.42 µM	> 100	> 100 µM	> 100	> 100 µM	> 100	6.01 µM	> 100	> 100 µM	> 100	4.54 µM	> 100
c1cc(-c2sc(-c3ccncc3)c(-c3ccncc3)c2-c2ccncc2)ccn1	–	42.9	–	> 100	–	> 100	–	> 100	–	46.5	–	> 100
OC1CCC(Oc2cccc3cnc(Nc4ccc5nc[nH]c5c4)nc23)CC1 (centres undefined)	0.313 µM	> 100	0.536 µM	19.3	0.157 µM	0.636	0.521 µM	43	0.392 µM	72.7	1.03 µM	14.4
O=C(Nc1ccc(Br)cc1)c1cc(Br)cc(Br)c1O	2.31 µM	6.66	3.1 µM	> 100	3.83 µM	> 100	2.89 µM	11	2.77 µM	12.9	2.74 µM	28.4
COc1ccc([N+](=O)[O-])c2c(NCC(O)CO)ccnc12 (centres undefined)	–	> 100	–	> 100	–	> 100	–	> 100	–	> 100	–	> 100
NC(N)=N/N=C/c1c(-c2cc(Cl)sc2Cl)nc2n1CCS2	8.31 µM	15.1	16 µM	43.7	10.4 µM	26.8	10.3 µM	22.1	7.18 µM	14.2	–	–
CC/C=C\C[C@H](O)C/C=C1/C(=O)C=C[C@@H]1C/C=C\CCCC(N)=O	1.64 µM	3.35	–	–	–	–	3.03 µM	11.4	2.32 µM	6.43	3.14 µM	15.3

Compound	GI50 (ACHN renal)	TGI (ACHN renal) [µM]	GI50 (K-562 leukemia)	TGI (K-562 leukemia) [µM]	GI50 (MOLT-4 leukemia)	TGI (MOLT-4 leukemia) [µM]	GI50 (OVCAR-8 ovarian)	TGI (OVCAR-8 ovarian) [µM]	GI50 (SN12C renal)	TGI (SN12C renal) [µM]	GI50 (T-47D breast)	TGI (T-47D breast) [µM]
Nc1ncnc2c1ncn2C1OC(C(=O)O)C(O)C1O (centres undefined)	–	> 100	–	> 100	–	> 100	–	> 100	–	> 100	–	> 100
CC1=CC[C@@H]2C(C)(C)[C@@H](O)CC[C@@]2(C)[C@@H]1COc1ccc2ccc(=O)oc2c1	5.11 µM	19.6	3.28 µM	27.5	3.14 µM	15.7	3.77 µM	17.2	4.77 µM	22.7	2.27 µM	7.14
COC(=O)c1ccc2c(c1)c1c(C)c3cnccc3c(C)c1n2C	0.0297 µM	0.299	0.0442 µM	1.8	0.0468 µM	3.13	0.0595 µM	3.79	0.044 µM	1.3	0.28 µM	2.25
O=C(N/N=C/c1ccc(F)cc1)c1[nH]c2ccc(I)cc2c1-c1ccccc1	0.719 µM	> 100	0.325 µM	–	1.24 µM	> 36.9	0.971 µM	> 51.2	1.63 µM	> 100	–	–
O=c1c(OC/C(=N/O)c2ccccc2)c(-c2ccccc2)oc2ccccc12	10.5 µM	28	13.7 µM	> 50	12.6 µM	> 50	21.7 µM	> 50	11.2 µM	28.7	14.8 µM	38.1
C=C1C(=O)O[C@H]2[C@H]1CC/C(COC(=O)c1ccc(C(=O)O)s1)=C\CC[C@@]1(C)O[C@@H]21	1.63 µM	3.02	1.47 µM	> 100	2.38 µM	7.2	2.69 µM	7.84	1.74 µM	3.5	2.22 µM	5.53
CN(C)CN1C(=O)S/C(=C2\C(=O)N(CN(C)C)c3ccccc32)C1=O	–	> 100	–	–	–	1.93	–	> 100	–	69.4	–	> 100
Cc1ccc(-c2cc3nc(-c4ccccc4)nc(C(Cl)Cl)n3n2)cc1	0.737 µM	1.41	1.76 µM	> 50	> 50 µM	> 50	1.16 µM	4.74	2.92 µM	> 50	0.718 µM	2.3
CC1(C)C(=O)/C(=C\c2ccco2)C[C@]2(C)[C@H]3CC=C4[C@@H]5C[C@](C)(C(=O)O)CC[C@]5(C)CC[C@@]4(C)[C@]3(C)CC[C@@H]12	6.9 µM	21.1	5.17 µM	93	4.37 µM	26.7	6 µM	42.4	7.64 µM	26	5.66 µM	35.1
ClCCn1cnc2c(SCc3ccccc3)ncnc21	4.99 µM	> 100	0.64 µM	> 100	0.823 µM	> 100	1.18 µM	> 100	8.54 µM	> 100	11.7 µM	> 100
C=C1C(O)C2C(=C(CC(C)C)C13CC3)C(=O)C(C)(C)C2OC (centres undefined)	> 100 µM	> 100	81.5 µM	> 100	24.2 µM	66.8	> 100 µM	> 100	> 100 µM	> 100	> 100 µM	> 100
O=C(O)c1nnsc1COCc1ccccc1	–	> 100	–	> 100	–	> 100	–	> 100	–	> 100	–	> 100
O=S(=O)(O)c1ccc2cc(N=Nc3cc(S(=O)(=O)O)c4cccnc4c3O)ccc2c1	–	> 100	–	> 100	–	> 100	–	> 100	–	–	–	> 100
COc1cccc2c(=O)c3c(sc12)c(NCCCN)nc1ccccc13	1.32 µM	2.59	–	–	–	–	–	–	1.45 µM	2.85	–	–
C=C(CNCCO)[C@@H]1CC[C@]2(CO)CC[C@]3(C)[C@H](CC[C@@H]4[C@@]5(C)CCC(NCCc6ccc(O)cc6)C(C)(C)[C@@H]5CC[C@]43C)[C@@H]12 (some centres undefined)	1.69 µM	3.08	–	–	0.339 µM	1.36	1.46 µM	2.8	1.69 µM	3.19	1.74 µM	3.55
